# Assay results: ChEMBL document CHEMBL5291721, “A preclinical secondary pharmacology resource illuminates target-adverse drug reaction associations of marketed drugs” (Nat Commun, 2023)
# Key:
# [1] = biological target: Sodium channel protein type 5 subunit alpha (Homo sapiens, UniProt Q14524); type: functional, cell-based
# Thromboxane A2 receptor [2] = biological target: T1, Thromboxane A2 receptor (Homo sapiens, UniProt P21731); type: functional
# T1 sequence (P21731 whole entry): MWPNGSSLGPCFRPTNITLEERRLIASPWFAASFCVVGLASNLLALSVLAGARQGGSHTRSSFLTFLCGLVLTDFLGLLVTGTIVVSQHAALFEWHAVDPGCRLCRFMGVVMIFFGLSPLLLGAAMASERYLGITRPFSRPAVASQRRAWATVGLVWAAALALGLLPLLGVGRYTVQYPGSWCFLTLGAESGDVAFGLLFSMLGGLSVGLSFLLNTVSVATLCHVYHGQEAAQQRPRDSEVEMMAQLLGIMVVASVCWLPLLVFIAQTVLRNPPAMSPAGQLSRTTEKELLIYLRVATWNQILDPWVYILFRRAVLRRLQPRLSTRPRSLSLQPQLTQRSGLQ
# Thromboxane A2 receptor [3] = biological target: T1, Thromboxane A2 receptor; type: functional, cell-based
# [4] = biological target: Voltage-dependent N-type calcium channel subunit alpha-1B (Rattus norvegicus, UniProt Q02294); type: functional
# [5] = biological target: T2, Muscarinic acetylcholine receptor M5 (Homo sapiens, UniProt P08912)
# T2 sequence (P08912 whole entry): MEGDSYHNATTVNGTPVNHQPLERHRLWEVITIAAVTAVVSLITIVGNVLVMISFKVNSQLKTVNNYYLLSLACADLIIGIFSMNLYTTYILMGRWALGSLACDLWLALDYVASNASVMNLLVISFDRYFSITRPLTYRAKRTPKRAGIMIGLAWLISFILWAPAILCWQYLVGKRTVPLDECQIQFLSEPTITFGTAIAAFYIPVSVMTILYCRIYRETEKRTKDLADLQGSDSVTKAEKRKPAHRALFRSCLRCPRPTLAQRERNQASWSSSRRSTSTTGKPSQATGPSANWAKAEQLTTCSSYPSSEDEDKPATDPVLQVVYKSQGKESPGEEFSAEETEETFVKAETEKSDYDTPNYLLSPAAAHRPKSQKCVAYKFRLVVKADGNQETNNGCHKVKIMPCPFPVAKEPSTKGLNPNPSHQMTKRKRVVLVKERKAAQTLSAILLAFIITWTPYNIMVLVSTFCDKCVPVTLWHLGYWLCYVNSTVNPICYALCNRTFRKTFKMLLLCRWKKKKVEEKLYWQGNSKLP
# Cannabinoid receptor 1 = Cannabinoid receptor 1 (Homo sapiens, UniProt P21554); type: functional
# Cannabinoid receptor 1, sequence (P21554 whole entry): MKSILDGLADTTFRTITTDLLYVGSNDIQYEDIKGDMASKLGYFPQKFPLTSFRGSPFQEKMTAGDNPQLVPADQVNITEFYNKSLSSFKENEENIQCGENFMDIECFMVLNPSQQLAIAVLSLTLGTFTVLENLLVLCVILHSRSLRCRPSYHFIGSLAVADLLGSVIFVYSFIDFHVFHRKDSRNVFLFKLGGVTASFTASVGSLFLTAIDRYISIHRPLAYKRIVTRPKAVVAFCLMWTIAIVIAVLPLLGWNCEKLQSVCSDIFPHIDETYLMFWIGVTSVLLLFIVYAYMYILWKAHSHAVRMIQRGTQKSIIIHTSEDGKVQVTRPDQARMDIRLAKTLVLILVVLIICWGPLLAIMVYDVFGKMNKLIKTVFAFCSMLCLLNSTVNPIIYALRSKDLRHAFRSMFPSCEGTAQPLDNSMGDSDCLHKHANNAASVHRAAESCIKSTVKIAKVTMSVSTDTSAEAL
# [6] = biological target: Gamma-aminobutyric acid type B receptor subunit 1 (Homo sapiens, UniProt Q9UBS5)
# Gamma-aminobutyric acid type B receptor subunit 1, sequence (Q9UBS5 whole entry): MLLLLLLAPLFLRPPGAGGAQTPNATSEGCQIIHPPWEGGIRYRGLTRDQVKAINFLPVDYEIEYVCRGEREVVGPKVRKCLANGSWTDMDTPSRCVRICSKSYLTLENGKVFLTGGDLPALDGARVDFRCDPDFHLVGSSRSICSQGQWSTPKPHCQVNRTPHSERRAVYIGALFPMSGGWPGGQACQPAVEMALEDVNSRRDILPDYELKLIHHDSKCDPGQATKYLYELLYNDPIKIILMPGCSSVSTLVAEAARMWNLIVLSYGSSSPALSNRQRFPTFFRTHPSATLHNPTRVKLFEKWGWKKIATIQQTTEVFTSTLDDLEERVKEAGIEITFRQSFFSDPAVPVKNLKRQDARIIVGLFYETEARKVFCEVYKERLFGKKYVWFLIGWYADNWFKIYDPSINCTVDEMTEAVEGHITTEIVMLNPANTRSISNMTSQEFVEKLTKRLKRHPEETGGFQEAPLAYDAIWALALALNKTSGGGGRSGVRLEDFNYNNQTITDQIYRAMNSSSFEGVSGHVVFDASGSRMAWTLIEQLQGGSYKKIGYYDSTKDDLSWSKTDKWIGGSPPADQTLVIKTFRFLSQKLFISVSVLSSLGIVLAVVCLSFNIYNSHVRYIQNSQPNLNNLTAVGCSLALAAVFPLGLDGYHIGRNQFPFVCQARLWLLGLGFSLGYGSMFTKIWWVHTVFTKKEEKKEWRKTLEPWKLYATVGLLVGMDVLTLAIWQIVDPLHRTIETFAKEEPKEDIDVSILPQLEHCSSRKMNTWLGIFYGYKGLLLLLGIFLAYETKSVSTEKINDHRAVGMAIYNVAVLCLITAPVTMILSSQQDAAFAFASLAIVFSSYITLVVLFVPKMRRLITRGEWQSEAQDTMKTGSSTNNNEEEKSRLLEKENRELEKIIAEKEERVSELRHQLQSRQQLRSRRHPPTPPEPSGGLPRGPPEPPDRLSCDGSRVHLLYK
# [7] = biological target: T3, Peroxisome proliferator-activated receptor gamma (Homo sapiens, UniProt P37231); type: functional
# T3 sequence (P37231 whole entry): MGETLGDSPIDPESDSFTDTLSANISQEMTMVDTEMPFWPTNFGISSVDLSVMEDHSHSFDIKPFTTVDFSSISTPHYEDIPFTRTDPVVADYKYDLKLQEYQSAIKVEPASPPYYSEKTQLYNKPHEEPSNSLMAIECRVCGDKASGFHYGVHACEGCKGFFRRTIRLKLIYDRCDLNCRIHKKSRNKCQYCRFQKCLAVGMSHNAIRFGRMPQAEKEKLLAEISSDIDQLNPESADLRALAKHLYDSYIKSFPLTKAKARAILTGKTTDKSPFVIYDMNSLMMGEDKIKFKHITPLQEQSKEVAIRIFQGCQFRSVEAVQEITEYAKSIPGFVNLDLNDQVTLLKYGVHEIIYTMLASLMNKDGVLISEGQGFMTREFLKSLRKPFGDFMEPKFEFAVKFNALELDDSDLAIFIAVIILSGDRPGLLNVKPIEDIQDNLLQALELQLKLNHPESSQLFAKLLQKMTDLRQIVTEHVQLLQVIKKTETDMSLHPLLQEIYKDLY
# [8] = biological target: Voltage-dependent L-type calcium channel subunit alpha-1C (Homo sapiens, UniProt Q13936); type: functional, cell-based
# Estrogen receptor = biological target: T4, Estrogen receptor (Homo sapiens, UniProt P03372); type: functional
# T4 sequence (P03372 whole entry): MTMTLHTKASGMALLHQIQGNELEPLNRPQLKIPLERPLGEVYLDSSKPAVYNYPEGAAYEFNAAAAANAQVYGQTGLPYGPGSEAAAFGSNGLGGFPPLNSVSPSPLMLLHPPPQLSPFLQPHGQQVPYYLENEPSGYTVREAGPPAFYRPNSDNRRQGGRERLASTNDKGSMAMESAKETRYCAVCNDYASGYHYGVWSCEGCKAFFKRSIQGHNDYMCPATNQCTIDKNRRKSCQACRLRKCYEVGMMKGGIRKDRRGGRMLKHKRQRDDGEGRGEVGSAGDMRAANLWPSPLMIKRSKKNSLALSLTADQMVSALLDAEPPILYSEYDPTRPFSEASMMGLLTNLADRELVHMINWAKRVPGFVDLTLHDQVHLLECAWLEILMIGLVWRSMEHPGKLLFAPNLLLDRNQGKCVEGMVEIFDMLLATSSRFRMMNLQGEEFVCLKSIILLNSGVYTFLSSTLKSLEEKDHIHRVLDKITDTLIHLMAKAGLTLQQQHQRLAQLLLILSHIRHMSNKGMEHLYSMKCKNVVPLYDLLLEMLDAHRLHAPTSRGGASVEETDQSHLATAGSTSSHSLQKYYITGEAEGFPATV
# Further: assay procedure not described here.
# Sodium channel protein type 5 subunit alpha, sequence (Q14524 whole entry): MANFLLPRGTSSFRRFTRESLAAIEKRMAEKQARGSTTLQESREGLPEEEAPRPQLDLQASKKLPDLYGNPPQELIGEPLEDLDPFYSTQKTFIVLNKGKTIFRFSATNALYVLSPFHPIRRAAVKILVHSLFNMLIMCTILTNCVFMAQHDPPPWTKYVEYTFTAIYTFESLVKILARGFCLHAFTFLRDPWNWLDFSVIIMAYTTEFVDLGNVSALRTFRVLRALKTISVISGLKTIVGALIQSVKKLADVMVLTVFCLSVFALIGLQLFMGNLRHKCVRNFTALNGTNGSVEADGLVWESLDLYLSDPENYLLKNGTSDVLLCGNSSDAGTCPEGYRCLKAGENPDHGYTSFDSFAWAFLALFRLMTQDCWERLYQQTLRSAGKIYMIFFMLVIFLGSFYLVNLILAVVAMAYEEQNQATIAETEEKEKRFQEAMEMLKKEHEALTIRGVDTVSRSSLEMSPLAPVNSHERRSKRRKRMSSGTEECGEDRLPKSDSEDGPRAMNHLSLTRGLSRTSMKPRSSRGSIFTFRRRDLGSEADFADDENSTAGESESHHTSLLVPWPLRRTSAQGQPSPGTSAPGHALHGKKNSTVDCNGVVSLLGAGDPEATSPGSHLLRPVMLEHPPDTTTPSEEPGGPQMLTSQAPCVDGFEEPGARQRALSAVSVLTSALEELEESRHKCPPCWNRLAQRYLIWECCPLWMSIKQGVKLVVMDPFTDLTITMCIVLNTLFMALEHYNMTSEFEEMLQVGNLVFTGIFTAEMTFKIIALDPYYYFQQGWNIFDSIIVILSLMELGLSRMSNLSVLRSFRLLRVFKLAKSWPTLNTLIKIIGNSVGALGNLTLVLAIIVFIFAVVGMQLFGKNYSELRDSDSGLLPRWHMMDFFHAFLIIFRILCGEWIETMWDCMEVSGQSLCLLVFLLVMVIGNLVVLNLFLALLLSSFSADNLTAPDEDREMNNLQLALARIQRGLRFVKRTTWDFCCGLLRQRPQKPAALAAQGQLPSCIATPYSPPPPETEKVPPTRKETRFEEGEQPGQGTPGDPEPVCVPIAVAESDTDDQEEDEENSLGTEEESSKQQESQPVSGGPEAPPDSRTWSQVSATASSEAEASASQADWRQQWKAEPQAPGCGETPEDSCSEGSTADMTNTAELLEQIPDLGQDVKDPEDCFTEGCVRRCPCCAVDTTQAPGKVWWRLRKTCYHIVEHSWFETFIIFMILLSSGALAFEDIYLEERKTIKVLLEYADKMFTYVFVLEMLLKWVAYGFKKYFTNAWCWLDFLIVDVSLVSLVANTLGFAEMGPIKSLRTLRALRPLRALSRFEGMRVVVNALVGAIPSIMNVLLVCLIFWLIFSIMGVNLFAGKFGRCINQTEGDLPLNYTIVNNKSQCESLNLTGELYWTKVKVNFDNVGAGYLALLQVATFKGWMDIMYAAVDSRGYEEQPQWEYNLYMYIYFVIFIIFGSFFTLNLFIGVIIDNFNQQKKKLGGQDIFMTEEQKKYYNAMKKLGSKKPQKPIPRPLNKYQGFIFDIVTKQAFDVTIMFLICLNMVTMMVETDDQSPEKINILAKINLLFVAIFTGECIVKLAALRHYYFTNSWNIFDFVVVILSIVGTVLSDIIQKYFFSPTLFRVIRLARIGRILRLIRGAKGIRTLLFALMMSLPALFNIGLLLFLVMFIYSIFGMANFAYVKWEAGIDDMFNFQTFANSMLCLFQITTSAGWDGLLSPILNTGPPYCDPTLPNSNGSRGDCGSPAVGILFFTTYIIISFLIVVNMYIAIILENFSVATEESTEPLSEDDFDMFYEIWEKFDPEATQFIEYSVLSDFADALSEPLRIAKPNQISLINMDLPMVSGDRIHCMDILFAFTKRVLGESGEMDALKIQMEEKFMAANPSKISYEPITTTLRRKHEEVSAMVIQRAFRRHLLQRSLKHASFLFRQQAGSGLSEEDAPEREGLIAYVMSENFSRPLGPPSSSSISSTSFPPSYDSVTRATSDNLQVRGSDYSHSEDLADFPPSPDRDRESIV
structure (smiles),measurement,setting,value
O=C(COc1ccc(Cl)cc1)N1CCN(Cc2ccc3c(c2)OCO3)CC1 [FIPEXIDE],AC50,[1],> 50 µM
CC(C)C(=O)Nc1ccc([N+](=O)[O-])c(C(F)(F)F)c1 [FLUTAMIDE],AC50,Thromboxane A2 receptor [2],> 10 µM
same,AC50,Thromboxane A2 receptor [3],6 µM
NS(=O)(=O)c1cc2c(cc1Cl)NCNS2(=O)=O [HYDROCHLOROTHIAZIDE],AC50,[4],> 10 µM
same,AC50,[5],> 10 µM
same,AC50,Cannabinoid receptor 1,> 10 µM
same,AC50,[6],> 10 µM
CC(C)Cc1ccc(CC(=O)O)cc1 [IBUFENAC],AC50,[7],> 30 µM
same,AC50,Thromboxane A2 receptor [2],> 30 µM
same,AC50,Thromboxane A2 receptor [3],> 30 µM
CCN(CC)CCNC(=O)c1cc(Cl)c(N)cc1OC [METOCLOPRAMIDE],AC50,[4],> 10 µM
Cc1cccc(C)c1OCC(C)N (stereo not given) [MEXILETINE],AC50,[8],> 50 µM
same,AC50,[7],> 30 µM
NC(=O)c1ncn([C@@H]2O[C@H](CO)[C@@H](O)[C@H]2O)c1O [MIZORIBINE],AC50,[7],> 30 µM
CCc1nn(CCCN2CCN(c3cccc(Cl)c3)CC2)c(=O)n1CCOc1ccccc1 [NEFAZODONE],AC50,[4],> 10 µM
same,AC50,Cannabinoid receptor 1,> 10 µM
same,AC50,[6],> 10 µM
COC(=O)C1=C(C)NC(C)=C(C(=O)OCC(C)C)C1c1ccccc1[N+](=O)[O-] (stereo not given) [NISOLDIPINE],AC50,[1],8.6 µM
OCCN1CCN(CCCN2c3ccccc3C=Cc3ccccc32)CC1 [OPIPRAMOL],AC50,[7],> 30 µM
CCc1ccc(CCOc2ccc(CC3SC(=O)NC3=O)cc2)nc1 (stereo not given) [PIOGLITAZONE],AC50,[4],> 10 µM
same,AC50,Cannabinoid receptor 1,> 10 µM
same,AC50,[6],> 10 µM
CC(C(=O)O)c1ccc(N2CC=CC2)c(Cl)c1 (stereo not given) [PIRPROFEN],AC50,[4],> 10 µM
CC[C@H](C)C(=O)O[C@H]1C[C@H](O)C=C2C=C[C@H](C)[C@H](CC[C@@H](O)C[C@@H](O)CC(=O)O)[C@H]21 [PRAVASTATIN],AC50,Estrogen receptor,> 30 µM
same,AC50,[7],> 30 µM
NC(=O)c1cnccn1 [PYRAZINAMIDE],AC50,[4],> 10 µM
same,AC50,Cannabinoid receptor 1,> 10 µM
same,AC50,Thromboxane A2 receptor [2],> 30 µM
same,AC50,Thromboxane A2 receptor [3],> 30 µM
O=C(NC[C@H]1CN(c2ccc(N3CCOCC3=O)cc2)C(=O)O1)c1ccc(Cl)s1 [RIVAROXABAN],AC50,[1],> 50 µM
CC(C)OC(=O)[C@H](C)N[P@](=O)(OC[C@H]1O[C@@H](n2ccc(=O)[nH]c2=O)[C@](C)(F)[C@@H]1O)Oc1ccccc1 [SOFOSBUVIR],AC50,[8],> 50 µM
same,AC50,[1],> 50 µM
CS(=O)(=O)c1ccc([C@@H](O)[C@@H](CO)NC(=O)C(Cl)Cl)cc1 [THIAMPHENICOL],AC50,[8],> 50 µM
same,AC50,[1],> 50 µM
CCCS(=O)(=O)Nc1ccc(F)c(C(=O)c2c[nH]c3ncc(-c4ccc(Cl)cc4)cc23)c1F [VEMURAFENIB],AC50,[8],> 30 µM
same,AC50,[1],> 30 µM
OCc1cc([C@@H](O)CNCCCCCCOCCOCc2c(Cl)cccc2Cl)ccc1O [VILANTEROL],AC50,Estrogen receptor,> 30 µM
same,AC50,[7],> 30 µM
same,AC50,[1],5 µM
CCOC(=O)N[C@@H]1CC[C@@H]2[C@@H](C1)C[C@H]1C(=O)O[C@H](C)[C@H]1[C@H]2/C=C/c1ccc(-c2cccc(F)c2)cn1 [VORAPAXAR],AC50,[8],> 50 µM
same,AC50,[1],> 50 µM
O=C(CCCCCCC(=O)Nc1ccccc1)NO [VORINOSTAT],AC50,[4],> 10 µM
same,AC50,[5],> 10 µM
same,AC50,Cannabinoid receptor 1,> 10 µM
same,AC50,[6],> 10 µM
